± gives the expanded uncertainty stated by the source.
Experiment: xn = mol fraction of the nth substance listed
Conditions: 101.33 kPa, Liquid

CCc1ccccc1 [ethylbenzene] + CN1CCCC1=O
mass density (303.15 K, x1 = 0.094): 1006.25 ± 2.8 kg/m3 | viscosity (303.15 K, x1 = 0.094): 1.415 ± 0.047 mPa·s | mass density (303.15 K, x1 = 0.1901): 989.43 ± 2.6 kg/m3 | viscosity (303.15 K, x1 = 0.1901): 1.301 ± 0.041 mPa·s | mass density (303.15 K, x1 = 0.2859): 972.61 ± 2.6 kg/m3 | viscosity (303.15 K, x1 = 0.2859): 1.188 ± 0.037 mPa·s | mass density (303.15 K, x1 = 0.3839): 955.98 ± 2.6 kg/m3 | viscosity (303.15 K, x1 = 0.3839): 1.081 ± 0.032 mPa·s | mass density (303.15 K, x1 = 0.4839): 939.38 ± 2.7 kg/m3 | viscosity (303.15 K, x1 = 0.4839): 0.975 ± 0.028 mPa·s | mass density (303.15 K, x1 = 0.5835): 923.22 ± 2.8 kg/m3 | viscosity (303.15 K, x1 = 0.5835): 0.884 ± 0.025 mPa·s | mass density (303.15 K, x1 = 0.6854): 906.91 ± 2.9 kg/m3 | viscosity (303.15 K, x1 = 0.6854): 0.796 ± 0.022 mPa·s | mass density (303.15 K, x1 = 0.7888): 890.73 ± 3.1 kg/m3 | viscosity (303.15 K, x1 = 0.7888): 0.722 ± 0.02 mPa·s | mass density (303.15 K, x1 = 0.8937): 874.71 ± 3.3 kg/m3 | viscosity (303.15 K, x1 = 0.8937): 0.66 ± 0.018 mPa·s | mass density (303.15 K, x1 = 1): 859.95 ± 3.6 kg/m3 | viscosity (303.15 K, x1 = 1): 0.598 ± 0.016 mPa·s | mass density (313.15 K, x1 = 0.094): 997.35 ± 2.7 kg/m3 | viscosity (313.15 K, x1 = 0.094): 1.216 ± 0.041 mPa·s | mass density (313.15 K, x1 = 0.1901): 980.53 ± 2.7 kg/m3 | viscosity (313.15 K, x1 = 0.1901): 1.124 ± 0.036 mPa·s | mass density (313.15 K, x1 = 0.2859): 963.71 ± 2.7 kg/m3 | viscosity (313.15 K, x1 = 0.2859): 1.033 ± 0.032 mPa·s | mass density (313.15 K, x1 = 0.3839): 947.11 ± 2.7 kg/m3 | viscosity (313.15 K, x1 = 0.3839): 0.94 ± 0.028 mPa·s | mass density (313.15 K, x1 = 0.4839): 930.52 ± 2.8 kg/m3 | viscosity (313.15 K, x1 = 0.4839): 0.846 ± 0.025 mPa·s | mass density (313.15 K, x1 = 0.5835): 914.35 ± 2.9 kg/m3 | viscosity (313.15 K, x1 = 0.5835): 0.772 ± 0.022 mPa·s | mass density (313.15 K, x1 = 0.6854): 898.04 ± 3.1 kg/m3 | viscosity (313.15 K, x1 = 0.6854): 0.705 ± 0.02 mPa·s | mass density (313.15 K, x1 = 0.7888): 881.86 ± 3.3 kg/m3 | viscosity (313.15 K, x1 = 0.7888): 0.643 ± 0.018 mPa·s | mass density (313.15 K, x1 = 0.8937): 865.85 ± 3.5 kg/m3 | viscosity (313.15 K, x1 = 0.8937): 0.588 ± 0.016 mPa·s | mass density (313.15 K, x1 = 1): 851.14 ± 3.7 kg/m3 | viscosity (313.15 K, x1 = 1): 0.537 ± 0.015 mPa·s | mass density (323.15 K, x1 = 0.094): 988.46 ± 2.8 kg/m3 | viscosity (323.15 K, x1 = 0.094): 1.057 ± 0.036 mPa·s | mass density (323.15 K, x1 = 0.1901): 971.63 ± 2.7 kg/m3 | viscosity (323.15 K, x1 = 0.1901): 0.982 ± 0.032 mPa·s | mass density (323.15 K, x1 = 0.2859): 954.81 ± 2.8 kg/m3 | viscosity (323.15 K, x1 = 0.2859): 0.904 ± 0.028 mPa·s | mass density (323.15 K, x1 = 0.3839): 938.2 ± 2.8 kg/m3 | viscosity (323.15 K, x1 = 0.3839): 0.829 ± 0.025 mPa·s | mass density (323.15 K, x1 = 0.4839): 921.64 ± 2.9 kg/m3 | viscosity (323.15 K, x1 = 0.4839): 0.75 ± 0.022 mPa·s | mass density (323.15 K, x1 = 0.5835): 905.4 ± 3 kg/m3 | viscosity (323.15 K, x1 = 0.5835): 0.688 ± 0.02 mPa·s | mass density (323.15 K, x1 = 0.6854): 889.1 ± 3.2 kg/m3 | viscosity (323.15 K, x1 = 0.6854): 0.629 ± 0.018 mPa·s | mass density (323.15 K, x1 = 0.7888): 873 ± 3.4 kg/m3 | viscosity (323.15 K, x1 = 0.7888): 0.576 ± 0.016 mPa·s | mass density (323.15 K, x1 = 0.8937): 856.9 ± 3.6 kg/m3 | viscosity (323.15 K, x1 = 0.8937): 0.525 ± 0.015 mPa·s | mass density (323.15 K, x1 = 1): 842.3 ± 3.8 kg/m3 | viscosity (323.15 K, x1 = 1): 0.483 ± 0.014 mPa·s | mass density (333.15 K, x1 = 0.094): 979.51 ± 2.9 kg/m3 | viscosity (333.15 K, x1 = 0.094): 0.932 ± 0.032 mPa·s | mass density (333.15 K, x1 = 0.1901): 962.67 ± 2.8 kg/m3 | viscosity (333.15 K, x1 = 0.1901): 0.868 ± 0.028 mPa·s | mass density (333.15 K, x1 = 0.2859): 945.85 ± 2.8 kg/m3 | viscosity (333.15 K, x1 = 0.2859): 0.801 ± 0.025 mPa·s | mass density (333.15 K, x1 = 0.3839): 929.24 ± 2.9 kg/m3 | viscosity (333.15 K, x1 = 0.3839): 0.735 ± 0.023 mPa·s | mass density (333.15 K, x1 = 0.4839): 912.7 ± 3 kg/m3 | viscosity (333.15 K, x1 = 0.4839): 0.671 ± 0.02 mPa·s | mass density (333.15 K, x1 = 0.5835): 896.46 ± 3.2 kg/m3 | viscosity (333.15 K, x1 = 0.5835): 0.618 ± 0.018 mPa·s | mass density (333.15 K, x1 = 0.6854): 880.17 ± 3.4 kg/m3 | viscosity (333.15 K, x1 = 0.6854): 0.565 ± 0.016 mPa·s | mass density (333.15 K, x1 = 0.7888): 864 ± 3.5 kg/m3 | viscosity (333.15 K, x1 = 0.7888): 0.52 ± 0.015 mPa·s | mass density (333.15 K, x1 = 0.8937): 847.93 ± 3.8 kg/m3 | viscosity (333.15 K, x1 = 0.8937): 0.474 ± 0.014 mPa·s | mass density (333.15 K, x1 = 1): 833.34 ± 4 kg/m3 | viscosity (333.15 K, x1 = 1): 0.437 ± 0.013 mPa·s | mass density (343.15 K, x1 = 0.094): 970.56 ± 2.9 kg/m3 | viscosity (343.15 K, x1 = 0.094): 0.833 ± 0.029 mPa·s | mass density (343.15 K, x1 = 0.1901): 953.71 ± 2.9 kg/m3 | viscosity (343.15 K, x1 = 0.1901): 0.774 ± 0.026 mPa·s | mass density (343.15 K, x1 = 0.2859): 936.87 ± 3 kg/m3 | viscosity (343.15 K, x1 = 0.2859): 0.714 ± 0.023 mPa·s | mass density (343.15 K, x1 = 0.3839): 920.25 ± 3 kg/m3 | viscosity (343.15 K, x1 = 0.3839): 0.658 ± 0.021 mPa·s | mass density (343.15 K, x1 = 0.4839): 903.71 ± 3.1 kg/m3 | viscosity (343.15 K, x1 = 0.4839): 0.603 ± 0.018 mPa·s | mass density (343.15 K, x1 = 0.5835): 887.45 ± 3.3 kg/m3 | viscosity (343.15 K, x1 = 0.5835): 0.559 ± 0.017 mPa·s | mass density (343.15 K, x1 = 0.6854): 871.13 ± 3.5 kg/m3 | viscosity (343.15 K, x1 = 0.6854): 0.514 ± 0.015 mPa·s | mass density (343.15 K, x1 = 0.7888): 854.97 ± 3.7 kg/m3 | viscosity (343.15 K, x1 = 0.7888): 0.472 ± 0.014 mPa·s | mass density (343.15 K, x1 = 0.8937): 838.91 ± 3.9 kg/m3 | viscosity (343.15 K, x1 = 0.8937): 0.43 ± 0.013 mPa·s | mass density (343.15 K, x1 = 1): 824.26 ± 4.1 kg/m3 | viscosity (343.15 K, x1 = 1): 0.397 ± 0.012 mPa·s | mass density (353.15 K, x1 = 0.094): 961.56 ± 3 kg/m3 | viscosity (353.15 K, x1 = 0.094): 0.746 ± 0.026 mPa·s | mass density (353.15 K, x1 = 0.1901): 944.7 ± 3 kg/m3 | viscosity (353.15 K, x1 = 0.1901): 0.695 ± 0.023 mPa·s | mass density (353.15 K, x1 = 0.2859): 927.86 ± 3 kg/m3 | viscosity (353.15 K, x1 = 0.2859): 0.643 ± 0.021 mPa·s | mass density (353.15 K, x1 = 0.3839): 911.2 ± 3.1 kg/m3 | viscosity (353.15 K, x1 = 0.3839): 0.596 ± 0.019 mPa·s | mass density (353.15 K, x1 = 0.4839): 894.64 ± 3.3 kg/m3 | viscosity (353.15 K, x1 = 0.4839): 0.547 ± 0.017 mPa·s | mass density (353.15 K, x1 = 0.5835): 878.35 ± 3.4 kg/m3 | viscosity (353.15 K, x1 = 0.5835): 0.505 ± 0.016 mPa·s | mass density (353.15 K, x1 = 0.6854): 862.01 ± 3.6 kg/m3 | viscosity (353.15 K, x1 = 0.6854): 0.468 ± 0.014 mPa·s | mass density (353.15 K, x1 = 0.7888): 845.86 ± 3.8 kg/m3 | viscosity (353.15 K, x1 = 0.7888): 0.43 ± 0.013 mPa·s | mass density (353.15 K, x1 = 0.8937): 829.76 ± 4.1 kg/m3 | viscosity (353.15 K, x1 = 0.8937): 0.391 ± 0.012 mPa·s | mass density (353.15 K, x1 = 1): 815.18 ± 4.3 kg/m3 | viscosity (353.15 K, x1 = 1): 0.366 ± 0.012 mPa·s

Source: the NIST ThermoML archive (doi:10.1021/je049572f)
